Results published in US20050159478A1, “Compositions containing d-tocopherol compound polybasic acid partial esters” (priority 2003, published 2005).
“And” between values parts separate entries of the source, which are not always exact repeats. Identical values can stand only once.

Key:
[1] = Oscillatory rheology, softening point at tan(δ) = 1; assay type: physicochemical; conditions: for Rheology (oscillatory) @ Tan(δ) = 1 Temperature (softening point): heating rate 5° C./min, oscillation stress 1.0 Pa, 1.0 Hz
Experimental: Rheology measurements are conducted with TA Instruments Rheolyst AR-1000N rheometer. Experiments are conducted with the parallel plate geometry in a nitrogen atmosphere. The experiments use an oscillation stress of 1.0 Pa at a frequency of 1.0 Hz. The temperature range of the experiments is 40 to 210° C. at a heating rate of 5.0° C./min. Per analogy to rigid sphere or polymers, for TCS samples below the melting point, change in the pseudo G′ and G″ moduli″ is used as an indication of the softening of the sample. The cross-over point corresponds to the point where the ratio of the […] or tan (δ) is equal to one. The temperature at which tan (δ) is equal to one is considered as the softening point for the solid TCS samples. In addition, the second derivative of the loss modulus vs temperature was calculated. A maximum or minimum in the second derivative indicates a curvature or inflexion in the G″ vs T. This can also be taken as indicator of a change in the state of the samples (softening or melting depending on the temperature).
Softening points of these tocopherol succinate samples were identified using oscillatory rheology measurements. The temperature at which tan(δ) is equal to one, i.e., cross-over point (or the point where the samples are less rigid) is considered as their softening point. We call the moduli “pseudo loss and storage moduli”, since below the melting point, the powder cannot in reality be viscoelastic.

[2] = Differential Scanning Calorimetry of tocopherol calcium succinate samples; assay type: physicochemical; conditions: heating rate 5° C./min; several thermal transitions per sample
Experimental: DSC measurements are conducted with a Perkin Elmer Pyris 1 Differential Scanning Calorimeter. Experiments are conducted between 40° C. and 250° C. at heating/cooling rates of 5.0 and 10.0° C./min. During the experiments, the samples are enclosed in an air tight aluminum pan. The aluminum pan is in a nitrogen purge at 30 psi.

Rheology (oscillatory) @ Tan(δ) = 1 Temperature (softening point) [1] | DSC Enthalpy [2] | DSC Onset [2] | SMILES | softening point in comparison to synthetic dl-tocopherol calcium succinate ([1]; compared with dl-tocopherol calcium succinate)
147 °C | – | – | Cc1c(C)c2c(c(C)c1OC(=O)CCC(=O)[O-])CC[C@@](C)(CCC[C@H](C)CCC[C@H](C)CCCC(C)C)O2.Cc1c(C)c2c(c(C)c1OC(=O)CCC(=O)[O-])CC[C@@](C)(CCC[C@H](C)CCC[C@H](C)CCCC(C)C)O2.[Ca+2] (racemic) [dl-tocopherol calcium succinate, reference compound] | –
151 °C and 153 °C | – | – | Cc1c(C)c2c(c(C)c1OC(=O)CCC(=O)[O-])CC[C@@](C)(CCC[C@H](C)CCC[C@H](C)CCCC(C)C)O2.Cc1c(C)c2c(c(C)c1OC(=O)CCC(=O)[O-])CC[C@@](C)(CCC[C@H](C)CCC[C@H](C)CCCC(C)C)O2.[Ca+2] [d-α-tocopherol calcium succinate] | significantly improved, i.e., increased, softening point
74 °C | 80.00 J/g | 74.5 °C | Cc1c(C)c2c(c(C)c1OC(=O)CCC(=O)O)CC[C@@](C)(CCC[C@H](C)CCC[C@H](C)CCCC(C)C)O2 [d-α-tocopherol succinic acid] | –
